Measurements published in US20250161312A1, “A METHOD FOR THE TREATMENT OF CHEMOTHERAPEUTIC DRUG-INDUCED NEPHROTOXICITY” (INSTITUT NATIONAL DE LA SANTÉ ET DE LA RECHERCHE MÉDICALE, priority 2022, published 2025).

Key:
[1] = target: T1, A1 receptor (Rattus norvegicus, UniProt P25099); conditions: rodent models, blockade of A1 receptor; cited from earlier work
T1 construct: host or cells: rodent (rat) in vivo models
T1 sequence (P25099 1-326): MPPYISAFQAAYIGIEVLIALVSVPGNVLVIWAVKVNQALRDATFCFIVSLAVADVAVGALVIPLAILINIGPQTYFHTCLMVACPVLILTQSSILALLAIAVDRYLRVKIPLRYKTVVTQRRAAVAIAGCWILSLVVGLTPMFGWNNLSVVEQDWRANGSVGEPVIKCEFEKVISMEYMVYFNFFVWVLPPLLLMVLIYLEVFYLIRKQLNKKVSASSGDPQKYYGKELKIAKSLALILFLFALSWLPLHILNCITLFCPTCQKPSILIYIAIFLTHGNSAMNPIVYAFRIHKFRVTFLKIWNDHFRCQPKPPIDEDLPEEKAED

[2] = tested on: mouse model; assay: MSX-3 in cisplatin-induced kidney injury mouse model; type: in vivo; conditions: vs. cisplatin
Description: FIG. 9. […] (A) BUN quantification. (B) Gene expression of the inflammatory marker Tnfa.

[3] = both in vitro and in vivo; cited from earlier work
[4] = tested on: C57BL6/J mice; assay: Sub-chronic cisplatin-induced kidney injury model; type: in vivo; conditions: cisplatin 3 mg/kg for six days
Procedure: FIG. 1. Schematic representation of the different animal procedures. (A) Acute cisplatin-induced kidney injury. […] (B) Sub-chronic cisplatin-induced kidney injury. […] (C) KW-6002 administration schedule in the acute model. […] (D) KW-6002 administration schedule in the sub-chronic model.
Animal experiments were adapted from 63-64. Animal procedures were performed in 8 to 10 weeks old male C57B16/J mice (Janvier Labs). Mice were fed a laboratory standard diet with water and food ad libitum and were kept under constant environmental conditions with a 12-hour light-dark cycle. Istradefylline (KW-6002; Tocris) was dissolved in a carrier solution consisting in 15% DMSO, 15% cremophor (Sigma), 70% saline solution (vehicle). Cisplatin (Accord Healthcare) was dissolved in saline solution. […] Three days after this single injection, animals were sacrificed by cervical dislocation (FIG. 1A).
Prior sacrifice by cervical dislocation, retro-orbital blood samples were collected in heparinized tubes and centrifuged for 10 min at 2000 rpm at room temperature. Renal function was assessed by Blood urea nitrogen (BUN) measurement using a AU480 Chemistry Analyzer (Beckman Coulter). At the time of sacrifice, kidneys or LLC1 tumors were harvested and stored in either “RNA later” solution (Thermo Fisher), 4% neutral buffered formalin or snap-frozen in liquid nitrogen.
Formalin-fixed and paraffin-embedded sections (3 μm thick) were stained with Hematoxylin and Eosin (Sigma Aldrich) or Periodic Acid-Schiff (Sigma-Aldrich). Slices were scored by a nephropathologist in a blinded manner. A kidney injury score grading scale from 0 to 5 was used to assess the severity of the injury as follow: 0=no lesions, 1=minimal injury characterized by occurrence of necrosis and debris; 2=mild injury with single cell necrosis, pyknotic cells, and apoptosis; 3=moderate injury characterized by tubular distension, vacuolation, and some cellular debris, 4=severe injury with occasional hyaline casts observed, patchy epithelial necrosis in all segments, loss of epithelial lining; and 5=very severe injury characterized by extensive tubular epithelial necrosis in all segments, loss of epithelial layer from many tubules widespread intraluminal cellular debris, and frequent hyaline casts particularly prominent in the medullary region (67).
Total RNA from kidney samples was extracted with phenol/chloroform and subsequently precipitated in isopropanol as described previously (71). Total RNA from cultured renal cells was extracted using RNeasy Mini kit (Qiagen) following manufacturer's recommendations.
Reverse transcription was performed on 1 μg of RNA using high-capacity cDNA reverse transcription kit (Thermo Fisher), according the manufacturer's recommendation. Real time PCR was performed on a StepOne device using Taqman Gene Expression Master Mix (Thermo Fisher), following manufacturer's recommendations. […]

[5] = tested on: kidney transcriptome; assay: RNA-Seq of kidney, sub-chronic protocol; type: in vivo, mice; conditions: adjusted p-value<0.01, log 2 fold change±1
Procedure: RNA-seq libraries (n=5-6/group) were generated from 500 ng of total RNA using Illumina® TruSeq® Stranded mRNA Library Prep Kit v2. Briefly, following purification with poly-T oligo attached magnetic beads, the mRNA was fragmented using divalent cations at 94° C. for 2 min. The cleaved RNA fragments were copied into first-strand cDNA using reverse transcriptase and random primers. Strand specificity was achieved by replacing dTTP with dUTP during the second-strand cDNA synthesis by DNA polymerase I and RNase H. Following the addition of a single “A” base and the subsequent ligation of the adapter on double-stranded cDNA fragments, the products were purified and enriched with PCR [30 s at 98° C.; (10 s at 98° C., 30 s at 60° C., 30 s at 72° C.)×12 cycles; 5 min at 72° C.] to create the cDNA library. Surplus PCR primers were further removed by purification using AMPure XP beads (Beckman Coulter), and the final cDNA libraries were checked for quality and quantified using capillary electrophoresis. Sequencing was performed on the Illumina® Genome Hiseq4000 as single-end 50 base reads following Illumina's instructions. Reads were mapped onto the mm 10 assembly of Mus musculus genome using STAR v2.5.3a (72). Only uniquely aligned reads were kept for further analyses. Quantification of gene expression was performed using HTSeq-count v0.6.1p1 (73) and gene annotations from Ensembl releases 90 and 102 and “union” mode. Read counts were normalized across libraries with the method proposed by Ander et al. (74). Comparisons of interest were performed using the test for differential expression proposed by Love et al. (75) and implemented in the DESeq2 Bioconductor library (v1.16.1). Resulting p-values were adjusted for multiple testing using the Benjamini and Hochberg method (76). RNA-sequencing was performed by Plateforme GenomEast, Institut de Génétique et de Biologie Moléculaire et Cellulaire, UMR 7104 CNRS-UdS/INSERM U964 (Illkirch, France). Sequencing data that support the findings of this study have been deposited in GEO with the primary accession code GSE179247. […]

[6] = tested on: kidney mouse sections; assay: Red Oil staining of kidney mouse sections; type: in vivo; conditions: cisplatin alone
Procedure: FIG. 6. KW6002 alleviates the cisplatin-induced nephrotoxicity associated with apoptosis, lipid metabolism, and oxidative stress. (A) Tail moment assessed by comet assay; 50 cells/condition were analyzed. (B and C) KW6002 attenuates cisplatin-induced renal lipid accumulation, assessed by Red Oil staining. […] Results are the mean±SEM (n=6-9 mice/group). (F-H) KW6002 attenuated cisplatin-induced oxidative stress in RPTEC/hTERT1 cells. (F and G) Gene expression of Nrf2 (F) and HO1 (G). […] Results are the mean±SEM (n=3 independent experiments).
10 μm frozen kidney mouse sections were fixed with ethanol (60%) then incubated for 15 min with Oil Red O Solution (Fisher Biotech) dissolved in isopropanol. After several washes with ddH2O, samples were incubated 3 min with hematoxylin. Lipid droplets are stained in red whereas nuclei appeared blue. […] RPTEC/hTERT cells were fixed with ethanol (60%) then incubated for 15 min with Oil Red O Solution. The cells were washed three times with ddH2O and incubated 3 min with hematoxylin. Coverslips were rinsed with H2O before mounting on microscope slides using glycerol gelatin aqueous slide mounting medium (Sigma). Quantifications were performed blindly using ImageJ software. […] The resulting red color images were quantified using a custom threshold (0.173 for RPTEC/hTERT cells and 0.140 for kidney stainings).

For `CCCn1c(=O)c2[nH]c(C3CCCC3)nc2n(CCC)c1=O` [8-cyclopentyl-1,3-dipropylxanthine], the “protection against cisplatin nephrotoxicity” value (shortened to “protection”) [1] is given as “protective against cisplatin nephrotoxicity”.
For `CCCn1c(=O)c2[nH]c(C34CC5CC(CC3C5)C4)nc2n(CCC)c1=O` [KW-3902], the “protection” value [1] is given as “protective against cisplatin nephrotoxicity”.
For `C#CCn1c(=O)c2c(nc(/C=C/c3cccc(OC)c3)n2C)n(CCCOP(=O)([O-])[O-])c1=O.[Na+].[Na+]` [MSX-3], the BUN ([2]; FIG. 9A) was “significant reduction of BUN” and the “mRNA levels of Tnfα” value ([2]; FIG. 9B) was “lower mRNA levels of Tnfα”.
In the case of `Cn1c(=O)c2c(ncn2C)n(C)c1=O` [caffeine], the “anti-tumoral effect of cisplatin” value [3] is given as “potentiate the anti-tumoral effect of cisplatin”.
In the case of `N.N.[Cl][Pt][Cl]` [cisplatin, cis-diamminedichloroplatinum (II)], the histological lesions [4] is reported as “severe histological lesions”, the “mRNA expression of Il6” value [4] is reported as “increased mRNA expression” and the “mRNA expression of Tnf” value [4] is reported as “increased mRNA expression”. For the same molecule, the “mRNA levels of KIM-1” value [4] was “significantly increased”, the “mRNA levels of NGAL” value [4] was “significantly increased” and the “blood urea nitrogen (BUN) levels” value ([4]; data not shown) was “increased blood urea nitrogen (BUN) levels”. The “genes downregulated in kidney” value [5] was 2299 genes, the “genes upregulated in kidney” value [5] was 2350 genes and the “genes whose expression is impacted in kidney” value [5] was 4649 genes. For the same molecule, the “lipid droplets in kidney” value [6] was “induced an accumulation of lipid droplets”.
In the case of `CCCn1c(=O)c2nc(C34CCC(CCC(=O)O)(CC3)CC4)[nH]c2n(CCC)c1=O` [tonapofylline], the “protection” value [1] is given as “protective against cisplatin nephrotoxicity”.
